Reference: ChEMBL document CHEMBL5724914, “Linking interpersonal differences in gut microbiota composition and drug biotransformation activity” (2024)
Where a SMILES comes first, the peptide text is derived from it. [ ]: non-standard residue; d: D form. pGlu = O=C1CC[C@@H](C(=O)O)N1; Thz = O=C(O)[C@@H]1CSCN1

What was measured:
[1] = (§1) The drug is tested on Z-029 corresponding to rat gut metagenome with ENA study accession number: PRJEB37062 and ENA sample accession number: ERS12561828 for biotransformation under anaerobic condition. The drug concentrations were measured over 9 timepoints collected between 0 and 24 hours of incubation by liquid-chromatography-coupled mass spectrometry (LC–MS); settings: 2 µM
[2] = as §1, with “Z-014” for “Z-029”, “ERS12561814” for “ERS12561828”; settings: 2 µM
[3] = as §1, with “on Z-011” for “on Z-029”, “to mouse” for “to rat”, “number: ERS12561811” for “number: ERS12561828”; settings: 2 µM
[4] = as §1, with “Z-008” for “Z-029”, “to” for “to rat gut”, “ERS12561808” for “ERS12561828”; settings: 2 µM
[5] = as §1, with “on Z-006” for “on Z-029”, “to mouse” for “to rat”, “number: ERS12561806” for “number: ERS12561828”; settings: 2 µM
[6] = as §1, with “on Z-002” for “on Z-029”, “to rabbit” for “to rat”, “number: ERS12561802” for “number: ERS12561828”; settings: 2 µM
[7] = as §1, with “on WLS-220” for “on Z-029”, “to human” for “to rat”, “number: ERS12561769” for “number: ERS12561828”; settings: 2 µM
[8] = as §1, with “on WLS-170” for “on Z-029”, “to human” for “to rat”, “number: ERS12561762” for “number: ERS12561828”; settings: 2 µM
[9] = as §1, with “on WLS-069” for “on Z-029”, “to human” for “to rat”, “number: ERS12561748” for “number: ERS12561828”; settings: 2 µM
[10] = as §1, with “on WLS-039” for “on Z-029”, “to human” for “to rat”, “number: ERS12561746” for “number: ERS12561828”; settings: 2 µM
[11] = as §1, with “on WLS-027” for “on Z-029”, “to human” for “to rat”, “number: ERS12561744” for “number: ERS12561828”; settings: 2 µM
[12] = human gut metagenome, 24 h, 2 µM
[13] = human gut metagenome, 24 h, 2 µM; remark: listed apart in the source
[14] = human gut metagenome, 24 h, 2 µM; remark: listed apart in the source
[15] = human gut metagenome, 24 h, 2 µM; remark: listed apart in the source
[16] = human gut metagenome, 24 h, 2 µM; remark: listed apart in the source
[17] = human gut metagenome, 24 h, 2 µM; remark: listed apart in the source
[18] = human gut metagenome, 24 h, 2 µM; remark: listed apart in the source
[19] = human gut metagenome, 24 h, 2 µM; remark: listed apart in the source
[20] = human gut metagenome, 24 h, 2 µM; remark: listed apart in the source
Note: call rule not given here.

CCC(COC(=O)c1cc(OC)c(OC)c(OC)c1)(c1ccccc1)N(C)C.O=C(O)/C=C\C(=O)O (stereo not given)
Bacterial Biotransformation [1]: Compound NOT metabolized
Bacterial Biotransformation [2]: Compound NOT metabolized
Bacterial Biotransformation [3]: Compound NOT metabolized
Bacterial Biotransformation [4]: Compound NOT metabolized
Bacterial Biotransformation [5]: Compound NOT metabolized
Bacterial Biotransformation [6]: Compound NOT metabolized
Bacterial Biotransformation [7]: Compound metabolized
Bacterial Biotransformation [8]: Compound metabolized
Bacterial Biotransformation [9]: Compound metabolized
Bacterial Biotransformation [10]: Compound NOT metabolized
Bacterial Biotransformation [11]: Compound metabolized
Bacterial Biotransformation [12]: Compound NOT metabolized
Bacterial Biotransformation [13]: Compound metabolized
Bacterial Biotransformation [14]: Compound metabolized
Bacterial Biotransformation [15]: Compound NOT metabolized
Bacterial Biotransformation [16]: Compound NOT metabolized
Bacterial Biotransformation [17]: Compound metabolized
Bacterial Biotransformation [18]: Compound NOT metabolized
Bacterial Biotransformation [19]: Compound metabolized
Bacterial Biotransformation [20]: Compound metabolized

CCCCCCOC(=O)/N=C(/N)c1ccc(NCc2nc3cc(C(=O)N(CCC(=O)OCC)c4ccccn4)ccc3n2C)cc1.CS(=O)(=O)O [DABIGATRAN ETEXILATE MESYLATE]
Bacterial Biotransformation [1]: Compound NOT metabolized
Bacterial Biotransformation [2]: Compound NOT metabolized
Bacterial Biotransformation [3]: Compound NOT metabolized
Bacterial Biotransformation [4]: Compound NOT metabolized
Bacterial Biotransformation [5]: Compound NOT metabolized
Bacterial Biotransformation [6]: Compound NOT metabolized
Bacterial Biotransformation [12]: Compound NOT metabolized
Bacterial Biotransformation [19]: Compound NOT metabolized
Bacterial Biotransformation [20]: Compound NOT metabolized

O=c1[nH]c2ccccc2n1CCCN1CCC(n2c(=O)[nH]c3cc(Cl)ccc32)CC1 [DOMPERIDONE]
Bacterial Biotransformation [1]: Compound NOT metabolized
Bacterial Biotransformation [2]: Compound NOT metabolized
Bacterial Biotransformation [3]: Compound NOT metabolized
Bacterial Biotransformation [4]: Compound NOT metabolized
Bacterial Biotransformation [5]: Compound NOT metabolized
Bacterial Biotransformation [6]: Compound NOT metabolized
Bacterial Biotransformation [7]: Compound NOT metabolized
Bacterial Biotransformation [9]: Compound NOT metabolized
Bacterial Biotransformation [10]: Compound NOT metabolized
Bacterial Biotransformation [11]: Compound NOT metabolized
Bacterial Biotransformation [12]: Compound NOT metabolized
Bacterial Biotransformation [13]: Compound NOT metabolized
Bacterial Biotransformation [14]: Compound NOT metabolized
Bacterial Biotransformation [16]: Compound NOT metabolized
Bacterial Biotransformation [19]: Compound NOT metabolized
Bacterial Biotransformation [20]: Compound NOT metabolized

OCCN1CCN(CCCN2c3ccccc3Sc3ccc(C(F)(F)F)cc32)CC1 [FLUPHENAZINE]
Bacterial Biotransformation [1]: Compound NOT metabolized
Bacterial Biotransformation [2]: Compound NOT metabolized
Bacterial Biotransformation [3]: Compound metabolized
Bacterial Biotransformation [4]: Compound NOT metabolized
Bacterial Biotransformation [5]: Compound metabolized
Bacterial Biotransformation [6]: Compound metabolized
Bacterial Biotransformation [7]: Compound metabolized
Bacterial Biotransformation [8]: Compound metabolized
Bacterial Biotransformation [9]: Compound metabolized
Bacterial Biotransformation [10]: Compound metabolized
Bacterial Biotransformation [11]: Compound metabolized
Bacterial Biotransformation [12]: Compound metabolized
Bacterial Biotransformation [13]: Compound NOT metabolized
Bacterial Biotransformation [14]: Compound metabolized
Bacterial Biotransformation [15]: Compound metabolized
Bacterial Biotransformation [16]: Compound metabolized
Bacterial Biotransformation [17]: Compound metabolized
Bacterial Biotransformation [18]: Compound NOT metabolized
Bacterial Biotransformation [20]: Compound metabolized

c1ccc([C@H]2CN3CCSC3=N2)cc1 [LEVAMISOLE]
Bacterial Biotransformation [1]: Compound NOT metabolized
Bacterial Biotransformation [2]: Compound NOT metabolized
Bacterial Biotransformation [3]: Compound NOT metabolized
Bacterial Biotransformation [5]: Compound metabolized
Bacterial Biotransformation [6]: Compound metabolized
Bacterial Biotransformation [7]: Compound metabolized
Bacterial Biotransformation [8]: Compound metabolized
Bacterial Biotransformation [9]: Compound metabolized
Bacterial Biotransformation [10]: Compound metabolized
Bacterial Biotransformation [11]: Compound metabolized
Bacterial Biotransformation [12]: Compound metabolized
Bacterial Biotransformation [13]: Compound metabolized
Bacterial Biotransformation [14]: Compound metabolized
Bacterial Biotransformation [15]: Compound metabolized
Bacterial Biotransformation [16]: Compound metabolized
Bacterial Biotransformation [17]: Compound metabolized
Bacterial Biotransformation [18]: Compound metabolized
Bacterial Biotransformation [19]: Compound metabolized
Bacterial Biotransformation [20]: Compound metabolized

C#C[C@]1(O)CC[C@H]2[C@@H]3CCC4=CC(=O)CC[C@@H]4[C@H]3CC[C@@]21CC [LEVONORGESTREL]
Bacterial Biotransformation [1]: Compound NOT metabolized
Bacterial Biotransformation [2]: Compound metabolized
Bacterial Biotransformation [3]: Compound metabolized
Bacterial Biotransformation [5]: Compound metabolized
Bacterial Biotransformation [6]: Compound metabolized
Bacterial Biotransformation [7]: Compound metabolized
Bacterial Biotransformation [8]: Compound metabolized
Bacterial Biotransformation [9]: Compound metabolized
Bacterial Biotransformation [10]: Compound metabolized
Bacterial Biotransformation [11]: Compound metabolized
Bacterial Biotransformation [12]: Compound metabolized
Bacterial Biotransformation [13]: Compound metabolized
Bacterial Biotransformation [14]: Compound metabolized
Bacterial Biotransformation [15]: Compound metabolized
Bacterial Biotransformation [16]: Compound metabolized
Bacterial Biotransformation [17]: Compound metabolized
Bacterial Biotransformation [18]: Compound metabolized
Bacterial Biotransformation [20]: Compound metabolized

O=C1CC[C@@H](C(=O)N2CSC[C@H]2C(=O)O)N1 [PIDOTIMOD] ([pGlu]-[Thz]-OH)
Bacterial Biotransformation [1]: Compound NOT metabolized
Bacterial Biotransformation [2]: Compound NOT metabolized
Bacterial Biotransformation [3]: Compound NOT metabolized
Bacterial Biotransformation [5]: Compound NOT metabolized
Bacterial Biotransformation [6]: Compound NOT metabolized
Bacterial Biotransformation [7]: Compound NOT metabolized
Bacterial Biotransformation [8]: Compound NOT metabolized
Bacterial Biotransformation [11]: Compound NOT metabolized
Bacterial Biotransformation [12]: Compound NOT metabolized
Bacterial Biotransformation [15]: Compound NOT metabolized
Bacterial Biotransformation [16]: Compound NOT metabolized
Bacterial Biotransformation [17]: Compound metabolized
Bacterial Biotransformation [18]: Compound NOT metabolized
Bacterial Biotransformation [19]: Compound NOT metabolized
Bacterial Biotransformation [20]: Compound NOT metabolized

COc1cc2nc(N3CCN(C(=O)c4ccco4)CC3)nc(N)c2cc1OC [PRAZOSIN]
Bacterial Biotransformation [1]: Compound NOT metabolized
Bacterial Biotransformation [2]: Compound NOT metabolized
Bacterial Biotransformation [3]: Compound NOT metabolized
Bacterial Biotransformation [4]: Compound NOT metabolized
Bacterial Biotransformation [5]: Compound NOT metabolized
Bacterial Biotransformation [6]: Compound NOT metabolized
Bacterial Biotransformation [7]: Compound metabolized
Bacterial Biotransformation [8]: Compound metabolized
Bacterial Biotransformation [10]: Compound NOT metabolized
Bacterial Biotransformation [11]: Compound NOT metabolized
Bacterial Biotransformation [12]: Compound NOT metabolized
Bacterial Biotransformation [13]: Compound metabolized
Bacterial Biotransformation [14]: Compound metabolized
Bacterial Biotransformation [15]: Compound NOT metabolized
Bacterial Biotransformation [16]: Compound NOT metabolized
Bacterial Biotransformation [17]: Compound metabolized
Bacterial Biotransformation [18]: Compound NOT metabolized
Bacterial Biotransformation [19]: Compound metabolized

COC(=O)[C@H]1[C@H]2C[C@@H]3c4[nH]c5cc(OC)ccc5c4CCN3C[C@H]2C[C@@H](OC(=O)c2cc(OC)c(OC)c(OC)c2)[C@@H]1OC [RESERPINE]
Bacterial Biotransformation [1]: Compound NOT metabolized
Bacterial Biotransformation [2]: Compound NOT metabolized
Bacterial Biotransformation [3]: Compound NOT metabolized
Bacterial Biotransformation [4]: Compound NOT metabolized
Bacterial Biotransformation [5]: Compound NOT metabolized
Bacterial Biotransformation [6]: Compound NOT metabolized
Bacterial Biotransformation [9]: Compound metabolized
Bacterial Biotransformation [10]: Compound metabolized
Bacterial Biotransformation [11]: Compound metabolized
Bacterial Biotransformation [12]: Compound NOT metabolized
Bacterial Biotransformation [13]: Compound metabolized
Bacterial Biotransformation [14]: Compound metabolized
Bacterial Biotransformation [15]: Compound NOT metabolized
Bacterial Biotransformation [16]: Compound NOT metabolized
Bacterial Biotransformation [19]: Compound metabolized
Bacterial Biotransformation [20]: Compound metabolized
